Test results: PubChem BioAssay AID328 (DTP/NCI, 2004)
“And” between values parts separate entries of the source, which are not always exact repeats. Equal values may be shown once. Inconclusive results and toxic doses are left out. Rule for the calls: active = survival T/C of 150% or more; inactive = T/C below 125% in these data.

System: BDF1 mice, P388 leukemia ip, median survival T/C
Experiment: NCI In Vivo Anticancer Drug Screen. Data for tumor model P388 Leukemia (intraperitoneal) in B6D2F1 (BDF1) mice
Conditions: endpoint: median survival time, higher = longer survival
Procedure, shortened: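 Reported as T/C, where T is the survival measurement in dosed animals and C the same measurement in vehicle controls.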

[1] = dose: 12.5 mg/kg/injection, schedule: Q01DX009 (ip), vehicle: saline with Tween-80
[2] = dose: 12.5 mg/kg/injection, schedule: Q04DX003 (ip), vehicle: saline with Tween-80
[3] = dose: 100.0 mg/kg/injection, schedule: Q04DX003 (ip), vehicle: saline with Tween-80
[4] = dose: 200.0 mg/kg/injection, schedule: Q04DX003 (ip), vehicle: saline with Tween-80
[5] = dose: 400.0 mg/kg/injection, schedule: Q04DX003 (ip), vehicle: saline with Tween-80

Measured: T/C

N/C(=N\O)c1cccnc1
inactive: dose: 12.5 mg/kg/injection, schedule: Q01DX009 (ip), vehicle: water 109 % of control | dose: 25.0 mg/kg/injection, schedule: Q01DX009 (ip), vehicle: water 102 % of control | dose: 50.0 mg/kg/injection, schedule: Q01DX009 (ip), vehicle: water 102 % of control | dose: 50.0 mg/kg/injection, schedule: Q04DX003 (ip), vehicle: water 101 % of control and 102 % of control | dose: 100.0 mg/kg/injection, schedule: Q01DX009 (ip), vehicle: water 102 % of control | dose: 100.0 mg/kg/injection, schedule: Q04DX003 (ip), vehicle: water 87 % of control and 105 % of control | dose: 200.0 mg/kg/injection, schedule: Q01DX009 (ip), vehicle: water 107 % of control | dose: 200.0 mg/kg/injection, schedule: Q04DX003 (ip), vehicle: water 100 % of control and 107 % of control | dose: 300.0 mg/kg/injection, schedule: Q04DX003 (ip), vehicle: water 108 % of control | dose: 400.0 mg/kg/injection, schedule: Q01DX009 (ip), vehicle: water 107 % of control

[O-]/[N+](=C\C=C\c1ccccc1)c1ccccc1
inactive: dose: 100.0 mg/kg/injection, schedule: Q04DX003 (ip), vehicle: Klucel (hydroxypropylcellulose) (HPC) 100 % of control | dose: 200.0 mg/kg/injection, schedule: Q04DX003 (ip), vehicle: Klucel (hydroxypropylcellulose) (HPC) 86 % of control | dose: 400.0 mg/kg/injection, schedule: Q04DX003 (ip), vehicle: Klucel (hydroxypropylcellulose) (HPC) 90 % of control

Clc1nc2ccccc2nc1CI
inactive: dose: 1.8 mg/kg/injection, schedule: Q01DX009 (ip), vehicle: saline 118 % of control | dose: 2.7 mg/kg/injection, schedule: Q01DX009 (ip), vehicle: saline 122 % of control | dose: 8.75 mg/kg/injection, schedule: Q04DX003 (ip), vehicle: saline 113 % of control | [1] 118 % of control | dose: 12.5 mg/kg/injection, schedule: Q01DX009 (ip), vehicle: saline 90 % of control | [2] 113 % of control | dose: 17.5 mg/kg/injection, schedule: Q04DX003 (ip), vehicle: saline 121 % of control | dose: 25.0 mg/kg/injection, schedule: Q04DX003 (ip), vehicle: saline with Tween-80 118 % of control | dose: 35.0 mg/kg/injection, schedule: Q04DX003 (ip), vehicle: saline 113 % of control | dose: 50.0 mg/kg/injection, schedule: Q04DX003 (ip), vehicle: saline 113 % of control

CCO/C=C/C(=O)NC(=O)OCC
inactive: dose: 100.0 mg/kg/injection, schedule: Q01DX009 (ip), vehicle: saline with Tween-80 98 % of control | [3] 95 % of control | dose: 200.0 mg/kg/injection, schedule: Q01DX009 (ip), vehicle: saline with Tween-80 107 % of control | [4] 95 % of control | dose: 400.0 mg/kg/injection, schedule: Q01DX009 (ip), vehicle: saline with Tween-80 109 % of control | [5] 90 % of control

CC(=O)c1ccccc1OCC(O)CN1CCN(c2ccccc2Cl)CC1 (configuration not stated)
inactive: dose: 37.5 mg/kg/injection, schedule: Q04DX003 (ip), vehicle: saline with Tween-80 100 % of control | dose: 75.0 mg/kg/injection, schedule: Q04DX003 (ip), vehicle: saline with Tween-80 109 % of control | dose: 150.0 mg/kg/injection, schedule: Q04DX003 (ip), vehicle: saline with Tween-80 90 % of control

O=C1c2ccccc2C(=O)c2c(O)c(N3CCCCC3)cc(O)c21
inactive: dose: 50.0 mg/kg/injection, schedule: Q01DX009 (ip), vehicle: saline 93 % of control | dose: 100.0 mg/kg/injection, schedule: Q01DX009 (ip), vehicle: saline 97 % of control | [3] 98 % of control | dose: 200.0 mg/kg/injection, schedule: Q01DX009 (ip), vehicle: saline 95 % of control | [4] 109 % of control | dose: 400.0 mg/kg/injection, schedule: Q01DX009 (ip), vehicle: saline 93 % of control | [5] 106 % of control

CC(N)C(=O)NCCN(C)C (configuration not stated)
inactive: dose: 50.0 mg/kg/injection, schedule: Q01DX005 (ip), vehicle: saline 95 % of control | dose: 100.0 mg/kg/injection, schedule: Q01DX005 (ip), vehicle: saline 107 % of control | dose: 200.0 mg/kg/injection, schedule: Q01DX005 (ip), vehicle: saline 99 % of control

Nc1ccc(/C=C/c2ccnc3ccccc23)cc1
inactive: dose: 3.13 mg/kg/injection, schedule: Q04DX003 (ip), vehicle: saline with Tween-80 109 % of control | dose: 6.25 mg/kg/injection, schedule: Q04DX003 (ip), vehicle: saline with Tween-80 109 % of control | [1] 112 % of control | [2] 109 % of control | dose: 25.0 mg/kg/injection, schedule: Q01DX009 (ip), vehicle: saline with Tween-80 91 % of control
